Measured values as given in patent publication US7928057B2, “Peptide for inhibition of calcineurin, nucleic acid, antibody, and diagnostic and therapeutic methods of use” (Julius-Maximilians-Universitaet Wuerzburg, priority 2006, dated 2011).
Entries after “also recorded” stand apart in the source; their conditions may differ. Where no end group is shown, it is not given here.

What was measured:
CRM1 = molecular target: T1, CRM1 (Rattus norvegicus, UniProt Q80U96); assay: CRM1 mediated nuclear export of CnA in cardiomyocytes; assay type: cell-based; conditions: full length CnA imported by Ang II stimulation, calpeptin added
T1 construct: endogenous in cells; host or cells: cardiomyocytes (neonatal rat)
Method: To address whether CnA nuclear export is mediated by CRM1, experiments using the CRM1 specific inhibitor, leptomycin B (LMB), were performed. Agonist-dependent nuclear import of full length CnA was achieved by Ang II stimulation. Calpeptin was added to prevent proteolysis of CnA.

[1] = test system: cJUN, ERK 1/2, GATA4, NFAT2; assay: Specificity: nuclear accumulation of other transcription factors in phenylephrin stimulated cardiomyocytes; assay type: cell-based; conditions: cardiomyocytes stimulated with phenylephrin; FIG. 9
Excerpt: The inventor also analyzed the specificity with the peptide (AAVALLPAVLAALAA KQECKIKYSERV SEQ ID NO: 5). In theory this peptide that mimics the Calcineurin NLS saturates the binding site on importin and therefore might completely block importin function for other transcription factors as well.

calcineurin (CnA) = assay: CnA phosphatase activity (specific phosphosubstrate RII, Biomol kit); assay type: biochemical, rat; conditions: cardiomyocytes stimulated with Ang II (10 μM); n=8, p=not significant
Method: Neonatal rat cardiomyocytes of Wistar rats were isolated as described previously (Ritter et al., 2003). Cells were resuspended in minimum essential medium/1% FCS. After preplating, the cardiomyocyte containing supernatant was recovered, and cells were plated in minimum essential medium on 6-well plates at a density of 1×10^6 cells per well. The medium for cardiomyocytes contained 5-bromo-2′-deoxyuridine (0.1 mmol/L) to suppress fibroblast growth. Fibroblast contamination of cardiomyocyte cultures was between 4% and 7% as regularly determined by immunohistochemical staining for troponin T. HeLa cells were grown in DMEM/5% FCS (Sigma). […]
NF-ATc reporter plasmid comprised the II-2 promoter followed by luciferase. Luciferase activity was determined according to the manufacturer's protocol (Promega). CnA phosphatase activity was determined using a commercial kit (CnA kit assay, Biomol) that measures effect on a specific CnA phosphosubstrate. […]
Phosphatase activity, transcriptional activity, protein synthesis, cell size and makers of myocardial hypertrophy in response to the peptide related inhibition of CnA nuclear import were examined. Phosphatase activity was assessed employing a specific substrate (RII) for can (Ritter et al., 2002). Cardiomyocytes were stimulated with Ang II (10 μM), and CnA phosphatase activity was measured in the presence of the NLS peptide or a non sense control peptide. […]

[2] = molecular target: T2, calcineurin (CnA)/importin β1 interaction (Homo sapiens, UniProt Q14974); assay: Peptide competition / co-immunoprecipitation of calcineurin with importin β1; assay type: binding; conditions: HeLa cells transfected with GFP-tagged CnA mutants (FIG. 3)
T2 construct: expressed in transfected cells; host or cells: HeLa cells (importin β1 endogenous, EGFP-CnAβ transfected)
Method: Immunoprecipitation of the CnA/importin complexes was performed with importin β1 antibodies, detection with a GFP antibody.
Epitope-tagged derivatives of calcineurin Aβ containing amino-terminal EGFP were generated using the mammalian expression vector pEGFP-C3 (BD Bioscience Clontech). For cloning of calcineurin mutants the mammalian expression vector pCMV-Sport6 containing the directionally cloned cDNA of human calcineurin Aβ was used (Invitrogen). The following mutants have been amplified by PCR, digested with XbaI and XhoI and cloned into the XbaI and XhoI sites of the described plasmid: CnAβ(full), CnAβ 1-415, CnAβ 1-425, CnAβ 1-445, CnAβ 1-465, CnAβ 1-485 and CnAβ 171-190. For these truncated mutants different reverse oligonucleotides were designed with subsequent N-terminal binding sites. The forward primer, binding at the N-terminus of calcineurin, was identical for each plasmid apart from the CnA(171-190) mutant. For this derivative primers are bound upstream of aa 171 and downstream of aa 190, respectively. Two internal mutants CnAβ(Δ420-434) and CnAβ(Δ420-445) were cloned into the XbaI and XhoI sites of pEGFP-C3 using a two step strategy. […]
(§1) The subcellular distribution of calcineurin was determined by immunofluorescence stainings. The primary antibodies used in fluorescence staining are described elsewhere (Burkhard et al., 2005). […]

Ang II treated mice = assay: Ang II (osmotic minipump) induced myocardial hypertrophy in mice; assay type: in vivo; conditions: for dilation of the left ventricle (left ventricular end diastolic diameter, LVEDD): mice with implanted mini-osmotic pumps with AngII, FIG. 8; for development of myocardial hypertrophy in vivo (heart/body weight ratio, molecular markers, echocardiography): cyclic peptide 25 mg/kg body weight/day i.p.
Method: For in vivo use the blocking peptide, that mimics the calcineurin nuclear localization signal (NLS) received a peptide extension to increase membrane permeability and was synthesised as a cyclic peptide to withstand proteolysis of N- and C-terminal proteases. This peptide was administered twice daily at a concentration of 25 mg/kg body weight/day by i.p. injections into mice. The mice were treated with implanted osmotic minipumps to release either angiotensin II or saline as control.
The inventor now extended his experiments to in vivo data.

[3] = test system: nuclear import of calcineurin (CnA) via importin β1; assay: Peptide competition assay: nuclear import of calcineurin in cardiomyocytes; assay type: cell-based; conditions: neonatal rat cardiomyocytes stimulated with Ang II; peptide added to the medium (1 μM)
Method: (§2) Neonatal rat cardiomyocytes were incubated with a peptide mimicking the NLS sequence of CnA (SEQ ID NO:2) and stimulated with Ang II ([…]). […] Nuclear import of CnA was therefore prevented. Control experiments were performed with a non-sense peptide SEQ ID NO: 3).
(§3) Neonatal rat cardiomyocytes of Wistar rats were isolated as described previously (Ritter et al., 2003). Cells were resuspended in minimum essential medium/1% FCS. After preplating, the cardiomyocyte containing supernatant was recovered, and cells were plated in minimum essential medium on 6-well plates at a density of 1×10^6 cells per well. The medium for cardiomyocytes contained 5-bromo-2′-deoxyuridine (0.1 mmol/L) to suppress fibroblast growth. Fibroblast contamination of cardiomyocyte cultures was between 4% and 7% as regularly determined by immunohistochemical staining for troponin T. HeLa cells were grown in DMEM/5% FCS (Sigma). 48 hours after preparation, cells were stimulated with […] angiotensin II (Ang II). Cells were harvested 24 hours after stimulation. Concentrations were as follows: Ang II: 10 μM, calpeptin: 10 μM, NLS peptide and control peptide: 1 μM, respectively.
as §1

NFAT Luciferase reporter = NFAT Luciferase reporter transgenic mice treated with angiotensin II; assay type: in vivo
[4] = test system: CnA/NF-ATc signalling pathway; assay: NF-ATc luciferase reporter plasmid transcriptional activity; assay type: cell-based, rat
Method: as §3
NF-ATc reporter plasmid comprised the II-2 promoter followed by luciferase. Luciferase activity was determined according to the manufacturer's protocol (Promega). CnA phosphatase activity was determined using a commercial kit (CnA kit assay, Biomol) that measures effect on a specific CnA phosphosubstrate. Free PO4 was indicated by a malachite green dye. The use of this kit has been described previously (Ritter et al., 2002).
(§4) Phosphatase activity, transcriptional activity, protein synthesis, cell size and makers of myocardial hypertrophy in response to the peptide related inhibition of CnA nuclear import were examined. Phosphatase activity was assessed employing a specific substrate (RII) for can (Ritter et al., 2002). Cardiomyocytes were stimulated with Ang II (10 μM), and CnA phosphatase activity was measured in the presence of the NLS peptide or a non sense control peptide. […] Similarly, myocardial hypertrophy, as evidenced by protein synthesis (707±21% vs. 133±12%, n=8, p<0.05), cell size (1191±91 μm^2 vs. 728±65 μm^2, n=8, p<0.05) (FIG. 5B), and expression of brain natriuretic peptide (BNP) (163±11% vs. 88±8%, n=8, p<0.05) (FIG. 5C), were suppressed by the NLS peptide.

[5] = test system: neonatal rat cardiomyocytes; assay: Markers of myocardial hypertrophy in Ang II stimulated cardiomyocytes (protein synthesis, cell size, BNP); assay type: cell-based; conditions: cardiomyocytes stimulated with Ang II (10 μM); n=8, p<0.05
Method: as §2, §3, §4

T cells = T cells stimulated with spleen dendritic cells (H3-thymidin incorporation); assay type: cell-based; conditions: T cells stimulated with spleen dendritic cells and simultaneously treated with peptide; FIG. 6
Excerpt: Bars indicate protein synthesis (H3-thymidin incorporation).
The inventor now extended the experiments to T-cells and to in vivo experiments in mice.

T2 sequence (Q14974 whole entry): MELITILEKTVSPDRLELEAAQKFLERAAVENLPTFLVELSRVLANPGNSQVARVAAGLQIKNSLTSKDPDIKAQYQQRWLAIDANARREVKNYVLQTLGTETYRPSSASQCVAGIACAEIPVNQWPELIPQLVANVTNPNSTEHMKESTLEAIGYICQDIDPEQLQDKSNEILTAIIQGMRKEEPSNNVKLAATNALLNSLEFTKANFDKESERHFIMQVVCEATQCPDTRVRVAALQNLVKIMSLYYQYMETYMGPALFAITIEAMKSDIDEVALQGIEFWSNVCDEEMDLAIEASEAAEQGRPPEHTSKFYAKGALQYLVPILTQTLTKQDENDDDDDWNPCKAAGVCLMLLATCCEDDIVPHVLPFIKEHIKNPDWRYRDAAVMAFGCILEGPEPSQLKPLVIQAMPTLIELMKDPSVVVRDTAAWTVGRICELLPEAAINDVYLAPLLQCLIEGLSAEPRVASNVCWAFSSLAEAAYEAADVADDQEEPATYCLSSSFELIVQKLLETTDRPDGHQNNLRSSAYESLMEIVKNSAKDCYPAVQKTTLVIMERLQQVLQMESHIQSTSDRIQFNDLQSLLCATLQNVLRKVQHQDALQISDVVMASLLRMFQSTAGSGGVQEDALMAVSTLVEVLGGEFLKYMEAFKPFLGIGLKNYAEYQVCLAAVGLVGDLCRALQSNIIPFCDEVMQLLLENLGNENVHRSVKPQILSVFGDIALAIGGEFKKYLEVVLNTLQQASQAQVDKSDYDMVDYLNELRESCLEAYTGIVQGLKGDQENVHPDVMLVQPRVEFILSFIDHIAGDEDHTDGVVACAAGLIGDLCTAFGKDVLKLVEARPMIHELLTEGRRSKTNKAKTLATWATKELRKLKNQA
T1 sequence (Q80U96 whole entry): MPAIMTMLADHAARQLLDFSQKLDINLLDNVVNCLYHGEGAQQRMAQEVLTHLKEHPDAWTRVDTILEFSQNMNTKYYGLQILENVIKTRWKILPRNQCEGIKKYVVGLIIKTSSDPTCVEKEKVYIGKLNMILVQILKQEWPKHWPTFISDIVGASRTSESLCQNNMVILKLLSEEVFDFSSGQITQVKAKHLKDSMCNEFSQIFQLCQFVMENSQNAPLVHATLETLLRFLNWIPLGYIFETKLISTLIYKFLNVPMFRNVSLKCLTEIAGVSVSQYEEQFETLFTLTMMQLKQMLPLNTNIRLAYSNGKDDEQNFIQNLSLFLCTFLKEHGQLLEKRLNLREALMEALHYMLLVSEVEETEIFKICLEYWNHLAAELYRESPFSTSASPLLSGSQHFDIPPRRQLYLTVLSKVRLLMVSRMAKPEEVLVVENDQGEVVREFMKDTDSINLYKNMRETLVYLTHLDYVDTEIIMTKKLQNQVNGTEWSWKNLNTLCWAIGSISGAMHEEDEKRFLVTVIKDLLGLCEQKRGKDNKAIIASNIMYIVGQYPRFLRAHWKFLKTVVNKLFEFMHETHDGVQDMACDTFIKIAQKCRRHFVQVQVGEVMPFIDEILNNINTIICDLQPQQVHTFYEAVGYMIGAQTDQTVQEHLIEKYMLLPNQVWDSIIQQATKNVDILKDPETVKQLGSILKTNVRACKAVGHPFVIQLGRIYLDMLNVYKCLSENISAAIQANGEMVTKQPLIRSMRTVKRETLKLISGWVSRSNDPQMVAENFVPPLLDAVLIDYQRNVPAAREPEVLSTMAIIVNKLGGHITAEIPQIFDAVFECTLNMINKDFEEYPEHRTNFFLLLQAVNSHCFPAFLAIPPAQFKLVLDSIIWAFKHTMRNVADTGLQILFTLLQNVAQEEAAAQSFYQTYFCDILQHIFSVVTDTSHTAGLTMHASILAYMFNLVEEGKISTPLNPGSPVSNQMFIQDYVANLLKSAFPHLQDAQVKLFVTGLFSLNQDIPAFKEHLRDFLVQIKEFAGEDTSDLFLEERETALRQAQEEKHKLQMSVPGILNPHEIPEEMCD

Row | Molecule | nuclear accumulation/import of selected transcription factors (cJUN, ERK 1/2, GATA4, NFAT2) [1] | total CnA phosphatase activity (calcineurin (CnA)) | calcineurin interaction/binding with importin β1 [2] | dilation of the left ventricle (left ventricular end diastolic diameter, LVEDD) (Ang II treated mice) | nuclear import (translocation) of CnA [3] | development of myocardial hypertrophy in vivo (heart/body weight ratio, molecular markers, echocardiography) (Ang II treated mice; Ang II minipump mice) | further results
1 | CCC(=C/[C@H](C)C/C=C/C(C)=C/[C@@H](C)C(=O)[C@@H](C)[C@H](O)[C@@H](C)C/C(C)=C/C(=O)O)/C=C/[C@@H]1OC(=O)C=C[C@@H]1C [LMB, leptomycin B] | – | – | – | – | – | – | nuclear export of CnA (CRM1): suppressed nuclear export of CnA
2 | AAVALLPAVLAALAA KQECKIKYSERV (AAVALLPAVLAALAAKQECKIKYSERV; alternative nucl loc signal plus membrane anker) [SEQ ID NO: 5] | did not block import | – | – | – | – | – | –
3 | AAVALLPAVLLALLAAQECAIAYSEYV (control peptide and membrane anker) [non sense peptide used in control experiments, reference compound] | – | 289±17% | did not interfere with the calcineurin/importin binding | did not prevent left ventricular dilation | not inhibited | – | –
4 | AAVALLPAVLLALLAKQECKIKYSERV (nuclear localisation signal and membrane anker) [NLS peptide] | – | 273±11% | prevented CnA binding to importin β1; also recorded: abrogated the interaction of calcineurin and importin β1 | dilation could prevented | suppressed calcineurin nuclear import | able to suppress the development of myocardial hypertrophy in vivo | Luciferase activity (NFAT Luciferase reporter): suppressed Luciferase activity; transcriptional activity of the CnA/NF-ATc signalling pathway ([4]; cardiomyocytes stimulated with Ang II (10 μM), n=8, p<0.05): 123±8%; transcriptional activity of calcineurin/NF-ATc (NF-ATc luciferase reporter plasmid), in words ([4]; neonatal rat cardiomyocytes, Ang II, FIG. 5A bottom, FIG. 5D): dose dependent manner; f-MHC expression as molecular marker of hypertrophy (Ang II treated mice; mice treated with angiotensin for 4 weeks, FIG. 7B): prevented expression of this marker; cell size [5]: 728±65 μm^2; expression of brain natriuretic peptide (BNP) [5]: 88±8%; protein synthesis [5]: 133±12%
5 | KQECKIKYSERV [SEQ ID NO: 2] | – | – | – | – | – | – | toxic effect ([4]; higher concentrations (>1 μM), values below background levels of untreated cardiomyocytes, FIG. 5D): toxic effect is possible
6 | blocking peptide: mimics the calcineurin NLS, with peptide extension to increase membrane permeability; synthesised as a cyclic peptide for in vivo use (AAVALLPAVLLALLAKQECKIKYSERV; also: synthesised as cyclic peptide, mode not given here) | did not prevent nuclear accumulation | – | – | – | – | able to prevent the development of myocardial hypertrophy; also recorded: prevents myocardial hypertrophy | calcineurin entry into the nucleus in vivo (Ang II treated mice; Ang II minipump mice, cellular level): suppressed calcineurin entry into the nucleus; heart weight (Ang II treated mice; mice treated with Ang II for 4 weeks, cyclic peptide with membrane permeability extension, 25 mg/kg body weight/day i.p. twice daily, FIG. 7A): prevented an increase in heart weight; T cell protein synthesis (H3-thymidin incorporation) / activation of lymphocytes (T cells): inhibited significantly; also recorded: significantly prevented activation of lymphocytes
